# Laboratory results as given in US8466289B2, “Heterocyclic sulfonamide derivatives” (Novartis AG, priority 2009, dated 2013).
# How the values were obtained:
# [1] = test system: BRAF-MEK-ERK cascade (activated BRAF (V599E), unactive MEK1, unactive MAP Kinase 2/ERK2); test: BRAF-MEK-ERK enzymatic cascade assay (TR-FRET); assay type: biochemical, human; conditions: compounds screened at 10 μM, 45 minutes pre-incubation with enzymes, 100 μM ATP
# Excerpt: A BRAF-MEK-ERK cascade assay is used to evaluate the effects of the compounds as inhibitors of the MAP kinase pathway. An enzymatic cascade assay is set up using recombinant human activated BRAF (V599E) kinase (Cat No. 14-557), human full length unactive MEK1 kinase (Cat No. 14-706) and human full length unactive MAP Kinase 2/ERK2 (Cat No. 14-536) enzymes procured from Upstate. TR-FRET (Time resolved fluorescence resonance energy transfer) detection technology is used for the read out. The assay buffer solution contains 50 mM Tris pH 7.5, 10 mM MgCl2, 1 mM DTT, 0.01% Tween 20, 0.1 nM activated BRAF, 2 nM unactive MEK1, 10 nM unactive ERK2, 100 μM ATP and 500 nM long chain biotin-peptide substrate (LCB-FFKNIVTPRTPPP) in a 384 well format. The kinase reaction is stopped after 90 minutes with 10 mM EDTA and Lance detection mix (2 nM Eu-labeled phospho-serine/threonine antibody (Cat. No. AD0176-Perkin Elmer), 20 nM SA-APC (Cat No. CR130-100-Perkin Elmer) is added. The TR-FRET signal (Excitation at 340 nm, Emission at 615 nm and 665 nm) is read with 50 μs delay time on a Victor3 V fluorimeter. The data is calculated using the ratio of readings at 665 nm to 615 nm. The final concentration of DMSO is 2.5% in the assay. Compounds are screened at 10 μM concentration with pre-incubation of the enzymes in the presence of test compound for 45 minutes.
# Each individual IC50 is determined using a 10 point dose response curve generated by GraphPad Prism software Version 4 (San Diego, Calif., USA) using non linear regression curve fit for sigmoidal dose response (variable slope).
# These assays described above are fully detailed in Han, Shulin, et. al., Bioorganic & Medicinal Chemistry Letters (2005) 15, 5467-5473, and in Yeh, et. al., Clin Cancer Res (2007) 13 (5), 1576-1583.
# (§1) The compounds of the above Examples were evaluated as inhibitors of the MAP kinase pathway in a BRAF-MEK-ERK enzymatic cascade assay and in the cell viability assay described above.
# A375 cells = test: cell viability assay in A375 cells using XTT; assay type: cell-based; conditions: Homo sapiens, A-375, 72 h, XTT read three days after compound addition
# Protocol: The cell viability assay in A375 cells is set up in a 96-well plate format using XTT.
# XTT is a yellow tetrazolium salt that is cleaved to an orange formazan dye by the mitochondria of metabolically active cells. The procedure allows for rapid determination in a microtitre plate, to give reproducible and sensitive results.
# A375 cells are grown in DMEM media containing 10% FBS and 1 mM sodium pyruvate. Cells are trypsinized and seeded at 1000 cells/well. After allowing the cells to adhere overnight, compound is added to the wells at the following final concentrations: 10, 3, 1, 0.3, 0.1, 0.03, 0.01, 0.001, and 0.0001 μM. The assay is set up in triplicates for each concentration. DMSO concentrations are kept at 0.5%/well. Three days after compound addition, the XTT assay is performed. Wells are washed once with PBS. 100 μL of DMEM media without phenol red or FBS is added to each well. A working solution of XTT containing 1 mg/ml XTT and 100 μL of PMS (stock concentration 0.383 mg/ml) per 5 ml is prepared. 50 μL of the working solution of XTT is added to each well. Absorbance of the plate is read at 465 nm using a Spectramax 190 (Molecular Devices). The absorbance from wells with media and XTT alone, but without cells is considered the blank and subtracted from readings from all wells.
# Percentage viability is calculated considering the blank subtracted value from wells treated with DMSO alone as 100% viable. GI50 values are calculated using Graphpad Prism, using non-linear regression curve fit for sigmoidal dose response (variable slope).
# The cell viability assay is further described in Scudiero, et. al., Cancer Research (1988) 48, 4827-4833; Weislow, et. al., J. Natl. Cancer Institute, (1989) 81, 577-586; and Roehm, et. al., J. Immunol. Methods [1991]142:257-265.
# as §1
% inhibition [1] [%],GI50 (A375 cells) [nM],SMILES
100,1530,"Cc1c(Nc2ccc(I)cc2F)c(NS(=O)(=O)C2CC(C(CO)CO)C2)c2n(c1=O)CCO2 (stereo not drawn) [Example 15A, 3-(1,3-dihydroxypropan-2-yl)-N-(7-(2-fluoro-4-iodophenylamino)-6-methyl-5-oxo-3,5-dihydro-2H-oxazolo[3,2-a]pyridin-8-yl)cyclobutane-1-sulfonamide]"
100,158,"Cc1c(Nc2ccc(I)cc2F)c(NS(=O)(=O)C2CC2CO)c2n(c1=O)CCS2 (stereo not drawn) [Example 21A, 2-Hydroxymethyl-cyclopropanesulfonic acid [7-(2-fluoro-4-iodo-phenylamino)-6-methyl-5-oxo-2,3-dihydro-5H-thiazolo[3,2-a]pyridin-8-yl]-amide]"

# Continued, molecule first:
SMILES,% inhibition [1] [%],GI50 (A375 cells) [nM]
"Cc1c(Nc2ccc(I)cc2F)c(NS(=O)(=O)C2(CCCO)CC2)c2n(c1=O)CCO2 [Example 12A, 1-(3-Hydroxy-propyl)-cyclopropanesulfonic acid [7-(2-fluoro-4-iodo-phenylamino)-6-methyl-5-oxo-2,3-dihydro-5H-oxazolo[3,2-a]pyridin-8-yl]-amide]",100,11
"Cc1c(Nc2ccc(I)cc2F)c(NS(=O)(=O)C2CC(O)C2)c2n(c1=O)CCN2 (stereo not drawn) [Example 6A, 3-Hydroxy-cyclobutanesulfonic acid [7-(2-fluoro-4-iodo-phenylamino)-6-methyl-5-oxo-1,2,3,5-tetrahydro-imidazo[1,2-a]pyridin-8-yl]-amide]",100,1380
"Cc1c(Nc2ccc(I)cc2F)c(NS(=O)(=O)C2CCC2)c2n(c1=O)CCO2 [Example 14A, Cyclobutanesulfonic acid [7-(2-fluoro-4-iodo-phenylamino)-6-methyl-5-oxo-2,3-dihydro-5H-oxazolo[3,2-a]pyridin-8-yl]-amide]",100,16
"Cc1c(Nc2ccc(I)cc2F)c(NS(=O)(=O)C2(CCO)CC2)c2n(c1=O)CCO2 [Example 9A, 1-(2-Hydroxy-ethyl)-cyclopropanesulfonic acid [7-(2-fluoro-4-iodo-phenylamino)-6-methyl-5-oxo-2,3-dihydro-5H-oxazolo[3,2-a]pyridin-8-yl]-amide]",100,19
